Assay results taken from PubChem BioAssay (NCI).
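96-well plates; 48 h exposure; 5 concentrations. Endpoints by linear interpolation between flanking doses. Not reached: highest tested concentration assigned. TGI denotes the concentration required for complete inhibition of growth.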 *1 amine or outer side, *2 acyl side, *3 side chain or, on linkers, in order; H or OH if unused. Where a SMILES comes first, the peptide text is derived from it. [ ]: non-standard residue; d: D form. The star is where a group is joined. ξ: configuration not given here. X27 = O=C([C@H]1CCC[C@H]1N[*:1])[*:2]; ξW = NC(Cc1c[nH]c2ccccc12)C(=O)O; ξF = NC(Cc1ccccc1)C(=O)O; Boc = CC(C)(C)OC(=O)*; ξK = NCCCCC(N)C(=O)O; ξT = CC(O)C(N)C(=O)O; tBu = CC(C)(C)*

What was measured:
Test in all cases: NCI tumour cell line growth inhibition, 48 h
786-0 renal = tested on: 786-0 renal
ACHN renal = tested on: ACHN renal
DU-145 prostate = tested on: DU-145 prostate
HCC-2998 colon = tested on: HCC-2998 colon
HCT-116 colon = tested on: HCT-116 colon
HOP-92 NSCLC = tested on: HOP-92 NSCLC
HT29 colon = tested on: HT29 colon
LOX IMVI melanoma = tested on: LOX IMVI melanoma
M14 melanoma = tested on: M14 melanoma
MDA-MB-231 breast = tested on: MDA-MB-231 breast
MDA-MB-435 = tested on: MDA-MB-435
NCI-H460 lung = tested on: NCI-H460 lung
NCI-H522 lung = tested on: NCI-H522 lung
OVCAR-4 ovarian = tested on: OVCAR-4 ovarian
OVCAR-5 ovarian = tested on: OVCAR-5 ovarian
SF-295 CNS = tested on: SF-295 CNS
SK-MEL-2 melanoma = tested on: SK-MEL-2 melanoma
SNB-19 CNS = tested on: SNB-19 CNS
SNB-75 CNS = tested on: SNB-75 CNS
SW-620 colon = tested on: SW-620 colon

| Compound | TGI (786-0 renal) [µM] | TGI (ACHN renal) [µM] | TGI (DU-145 prostate) [µM] | TGI (HCC-2998 colon) [µM] | TGI (HCT-116 colon) [µM] | TGI (HOP-92 NSCLC) [µM] | TGI (HT29 colon) [µM] | TGI (LOX IMVI melanoma) [µM] | TGI (M14 melanoma) [µM] | TGI (MDA-MB-231 breast) [µM] | TGI (MDA-MB-435) [µM] | TGI (NCI-H460 lung) [µM] | TGI (NCI-H522 lung) [µM] | TGI (OVCAR-4 ovarian) [µM] | TGI (OVCAR-5 ovarian) [µM] | TGI (SF-295 CNS) [µM] | TGI (SK-MEL-2 melanoma) [µM] | TGI (SNB-19 CNS) [µM] | TGI (SNB-75 CNS) [µM] | TGI (SW-620 colon) [µM] |
| --- | --- | --- | --- | --- | --- | --- | --- | --- | --- | --- | --- | --- | --- | --- | --- | --- | --- | --- | --- | --- |
| COc1ccc(NC(=S)N/N=C\c2ccc(NC(C)=O)cc2)cc1 | > 100 | > 100 | > 100 | > 100 | > 100 | > 100 | > 100 | > 100 | > 100 | > 100 | > 100 | > 100 | > 100 | > 100 | > 100 | > 100 | > 100 | > 100 | > 100 | > 100 |
| Cn1c(NNc2ccccc2)cc(=O)[nH]c1=O | 44.2 | > 100 | > 100 | 97.5 | > 100 | > 100 | > 100 | > 100 | > 100 | > 100 | 43.1 | > 100 | 40.5 | > 100 | > 100 | > 100 | > 100 | > 100 | > 100 | > 100 |
| COc1ccc(CC2C3=C(CCN2C(=O)C2CCC2)CC2(CC3)OCCO2)cc1O (stereo not given) | > 100 | > 100 | 61.6 | > 100 | > 100 | > 100 | > 100 | > 100 | 63.1 | > 100 | 20 | > 100 | 38.3 | > 100 | > 100 | 45.5 | > 100 | > 100 | 52.4 | > 100 |
| CC(=O)Nc1ccc(NS(=O)(=O)c2ccc3nc(C)n(NS(=O)(=O)c4ccc(NC(C)=O)cc4)c(=O)c3c2)cc1 | > 100 | > 100 | > 100 | > 100 | > 100 | > 100 | > 100 | > 100 | > 100 | > 100 | > 100 | > 100 | > 100 | > 100 | > 100 | > 100 | > 100 | > 100 | > 100 | > 100 |
| O=C(Cn1cc(-c2ccccc2)nn1)NC1CCCCC1 | > 100 | > 100 | > 100 | > 100 | > 100 | > 100 | > 100 | > 100 | > 100 | > 100 | > 100 | > 100 | > 100 | > 100 | > 100 | > 100 | > 100 | > 100 | > 100 | > 100 |
| CC(OC(C)(C)C)C1NC(=O)C(CCCCNC(=O)OC(C)(C)C)NC(=O)C(Cc2c[nH]c3ccccc23)NC(=O)C(Cc2ccccc2)NC(=O)[C@H]2CCC[C@H]2NC(=O)C(Cc2ccccc2)NC1=O (stereo not given in full) (cyclo([X27][ξF][ξW][ξK](Boc)[ξT](tBu)[ξF])) | > 100 | > 100 | > 100 | > 100 | > 100 | > 100 | > 100 | > 100 | > 100 | > 100 | > 100 | > 100 | > 100 | > 100 | 59.8 | 73.7 | 62.8 | 69.6 | > 100 | > 100 |
| COC(=O)CCC(C)[C@H]1CCC2C3C(C[C@H](OC(C)=O)[C@@]21C)[C@@]1(C)CCC2(C[C@H]1C[C@H]3OC(C)=O)OOC1(CCCC1)OO2 (stereo not given in full) | > 100 | > 100 | > 100 | > 100 | > 100 | 64.8 | > 100 | > 100 | > 100 | > 100 | > 100 | > 100 | > 100 | 87.6 | > 100 | > 100 | > 100 | > 100 | > 100 | > 100 |
| CC(C)(C)n1c(=O)n2n(c1=O)Cc1cccc3cccc(c13)C2 | 45.1 | 44.7 | > 100 | 45.6 | 33.8 | 69.2 | 39.7 | 73.5 | 34.1 | > 100 | 62 | 23.9 | 13.6 | 50.3 | 35.1 | 54.2 | 38.2 | > 100 | 66.4 | 35.9 |
| C=CCc1[nH]c2c(OCc3ccccc3)cc(N(CC=C)C(C)=O)cc2c1C | 28 | 25.3 | 27.8 | 28.4 | 24.8 | 25.7 | 20.5 | 25 | 21.8 | 23.2 | 33.5 | 27.9 | 26.5 | 23.6 | 27.2 | 33.5 | 26.1 | 25.3 | 23.4 | 32.2 |
| CC(=O)C1C(=O)C(=O)N(c2ccccc2)C1=O (stereo not given) | > 100 | > 100 | > 100 | > 100 | > 100 | > 100 | > 100 | > 100 | > 100 | > 100 | > 100 | > 100 | > 100 | > 100 | > 100 | > 100 | > 100 | > 100 | > 100 | > 100 |
| CC(=O)OC(CN1CCN(c2ccccn2)CC1)Cn1sc2nc(C)cc(C)c2c1=O (stereo not given) | 28.1 | 30 | 33.9 | 34.4 | 30.5 | > 100 | 34.4 | 47.4 | 31.4 | 32.6 | 34.5 | 35.2 | 22.7 | 55.4 | 31.5 | > 100 | 32.2 | > 100 | 32.8 | > 100 |
| Cc1ccc(S(=O)(=O)CN2C(=O)C(c3ccccc3)(c3ccccc3)C23OC(c2ccc(Cl)cc2)=CC3=O)cc1 (stereo not given) | > 10 | > 10 | > 10 | > 10 | > 10 | > 10 | > 10 | > 10 | > 10 | > 10 | > 10 | > 10 | > 10 | > 10 | > 10 | > 10 | > 10 | > 10 | > 10 | > 10 |
